Measured values taken from the NIST ThermoML archive (doi:10.1016/j.jct.2013.02.001).
± gives the expanded uncertainty stated by the source.

Settings: Quantum Design PPMS relaxation calorimeter; for molar entropy: 101.33 kPa

O=P([O-])([O-])OP(=O)([O-])[O-].[Fe+2].[Fe+2] [iron(II) pyrophosphate]
Settings | molar entropy [J/K/mol]
1 K, Crystal 2 | 0.08421 ± 0.013
2 K, Crystal 2 | 0.1749 ± 0.027
3 K, Crystal 2 | 0.2781 ± 0.043
4 K, Crystal 2 | 0.4026 ± 0.062
5 K, Crystal 2 | 0.5598 ± 0.086
6 K, Crystal 2 | 0.7639 ± 0.12
7 K, Crystal 2 | 1.033 ± 0.16
8 K, Crystal 2 | 1.379 ± 0.21
9 K, Crystal 2 | 1.814 ± 0.28
10 K, Crystal 2 | 2.349 ± 0.085
11 K, Crystal 2 | 2.988 ± 0.11
12 K, Crystal 2 | 3.726 ± 0.14
13 K, Crystal 2 | 4.55 ± 0.16
14 K, Crystal 2 | 5.45 ± 0.2
15 K, Crystal 2 | 6.422 ± 0.23
16 K, Crystal 2 | 7.473 ± 0.27
17 K, Crystal 2 | 8.609 ± 0.31
18 K, Crystal 2 | 9.826 ± 0.35
19 K, Crystal 1 | 11.08 ± 0.4
20 K, Crystal 1 | 12.28 ± 0.44
25 K, Crystal 1 | 16.82 ± 0.61
30 K, Crystal 1 | 20.58 ± 0.74
35 K, Crystal 1 | 24 ± 0.86
40 K, Crystal 1 | 27.36 ± 0.98
45 K, Crystal 1 | 30.72 ± 1.1
50 K, Crystal 1 | 34.14 ± 1.2
55 K, Crystal 1 | 37.63 ± 1.4
60 K, Crystal 1 | 41.21 ± 1.5
65 K, Crystal 1 | 44.87 ± 1.6
70 K, Crystal 1 | 48.62 ± 1.6
75 K, Crystal 1 | 52.44 ± 1.7
80 K, Crystal 1 | 56.32 ± 1.9
85 K, Crystal 1 | 60.25 ± 2
90 K, Crystal 1 | 64.23 ± 2.1
95 K, Crystal 1 | 68.25 ± 2.3
100 K, Crystal 1 | 72.3 ± 2.4
110 K, Crystal 1 | 80.43 ± 2.7
120 K, Crystal 1 | 88.54 ± 2.9
130 K, Crystal 1 | 96.61 ± 3.2
140 K, Crystal 1 | 104.61 ± 3.5
150 K, Crystal 1 | 112.55 ± 3.7
160 K, Crystal 1 | 120.42 ± 4
170 K, Crystal 1 | 128.21 ± 4.2
180 K, Crystal 1 | 135.93 ± 4.5
190 K, Crystal 1 | 143.57 ± 4.7
200 K, Crystal 1 | 151.13 ± 5
210 K, Crystal 1 | 158.6 ± 5.2
220 K, Crystal 1 | 165.99 ± 5.5
230 K, Crystal 1 | 173.3 ± 5.7
240 K, Crystal 1 | 180.51 ± 6
250 K, Crystal 1 | 187.62 ± 6.2
260 K, Crystal 1 | 194.64 ± 6.4
270 K, Crystal 1 | 201.56 ± 6.7
273.15 K, Crystal 1 | 203.72 ± 6.7
280 K, Crystal 1 | 208.38 ± 6.9
290 K, Crystal 1 | 215.1 ± 7.1
298.15 K, Crystal 1 | 220.5 ± 7.3
300 K, Crystal 1 | 221.72 ± 7.3

Settings | Triple point temperature [K]
Crystal 2 | 18.96 ± 0.2
